Results reported in patent publication US9675596B2, “1,2,4-thiazolidin-3-one derivatives and their use in the treatment of cancer” (Baltic Bio AB, priority 2009, dated 2017).

These compounds were tested on PC-3 cells (assay: Cell proliferation assay (BrdU incorporation)). Conditions: Homo sapiens, serum-free, 1.25 μM, relative to vehicle control (1 unit), 18 h + 6 h BrdU, read-out: Units of BrdU incorporation.
Type: cell-based
Experimental: PC-3 cancer cell lines were propagated in D-MEM (Gibco 21885) supplemented with 10% Foetal calf serum. 15000 cells per well were seeded in 96 well plates and incubated overnight. The culture media was changed to serum-free D-MEM for 24 h. The culture media was then changed to serum free D-MEM containing either 0.2% DMSO as vehicle control or 0.3, 0.6, 1.2 or 2.5 μM (or 1.25, 2.5, 5, 10 μM (as indicated in Table 1 below)) of the selected compounds of Example 1 to Example 8 in 0.2% DMSO in quadruplicate. After 18 h incubation, BrdU was added according to manufacturer's recommendations. After 6 h incubation in the presence of BrdU, the culture media was removed and BrdU incorporation was measured using “Cell Proliferation ELISA, BrdU colorimetric” Roche (11647229001) according to manufacturer's recommendations.
Proliferation rate of PC-3 cells are reduced by relevant concentrations of the test compounds as measured by BrdU incorporation.

SMILES	activity at 1.25 µM
O=c1[nH]s/c(=N\c2ccc(Cl)c(Cl)c2)n1C(c1ccccc1)c1ccccc1 [Example 6, 4-Benzhydryl-5-(3,4-dichlorophenyl)imino-1,2,4-thiadiazolidin-3-one]	42%
O=c1nc(Nc2ccc(Cl)c(Cl)c2)sn1Cc1ccc(F)c(F)c1 [Example 8c, 1,5-(3,4-dichlorophenylamino)-2-(3,4-difluorobenzyl)-[1,2,4]thiadiazol-3-one]	7%

Same assay, conditions: Homo sapiens, serum-free, 2.5 μM, relative to vehicle control (1 unit), 18 h + 6 h BrdU, read-out: Units of BrdU incorporation

SMILES	activity at 2.5 µM
O=C(Nc1nc(=O)n(Cc2ccc(F)cc2)s1)c1ccc(OC(F)(F)F)cc1 [Example 4n, N-[2-[(4-fluorophenyl)methyl]-3-oxo-1,2,4-thiadiazol-5-yl]-4-(trifluoromethoxy)-benzamide]	17%
COc1ccc(Cn2sc(Nc3ccc(Cl)c(Cl)c3)nc2=O)cc1 [Example 8a, 1,5-(3,4-Dichlorophenylamino)-2-(4-methoxybenzyl)-[1,2,4]thiadiazol-3-one]	4%
O=c1nc(Nc2ccc(Cl)c(Cl)c2)sn1Cc1ccc(Cl)cc1 [Example 8b, 1,5-(3,4-dichlorophenylamino)-2-(4-chlorobenzyl)-[1,2,4]thiadiazol-3-one]	18%

Same assay, conditions: Homo sapiens, serum-free, 5 μM, relative to vehicle control (1 unit), 18 h + 6 h BrdU, read-out: Units of BrdU incorporation

SMILES	activity at 5 µM
O=c1[nH]s/c(=N\c2ccc(Cl)c(Cl)c2)n1Cc1ccccc1 [Example 2e]	17%
O=C(Nc1nc(=O)n(C2(c3ccc(F)cc3)CC2)s1)c1ccc(Cl)c(Cl)c1 [Example 4i, 3,4-dichloro-N-[2-[1-(4-fluorophenyl)cyclopropyl]-3-oxo-1,2,4-thiadiazol-5-yl]benzamide]	10%
O=c1nc(Nc2ccc(Cl)c(Cl)c2)sn1CCc1ccccc1 [Example 8f, 5-(3,4-dichlorophenylamino)-2-phenethyl-[1,2,4]thiadiazol-3-one]	8%
O=c1nc(Nc2ccc(C(F)(F)F)cc2)sn1Cc1ccc(F)c(F)c1 [Example 8k, 2-[(3,4-difluorophenyl)methyl]-5-[[4-(trifluoromethyl)phenyl]amino]-1,2,4-thiadiazol-3-one]	4%
O=c1nc(Nc2ccc(OC(F)(F)F)cc2)sn1Cc1ccc(F)c(F)c1 [Example 8l, 2-[(3,4-difluorophenyl)methyl]-5-[[4-(trifluoromethoxy)phenyl]amino]-1,2,4-thiadiazol-3-one]	10%
O=c1nc(Nc2ccc(C(F)(F)F)cc2)sn1Cc1ccc(Cl)cc1 [Example 8p, 2-[(4-chlorophenyl)methyl]-5-[[4-(trifluoromethyl)phenyl]amino]-1,2,4-thiadiazol-3-one]	7%
O=c1nc(Nc2ccc(C(F)(F)F)cc2)sn1Cc1cccc(F)c1 [Example 8q, 2-[(3-fluorophenyl)methyl]-5-[[4-(trifluoromethyl)phenyl]amino]-1,2,4-thiadiazol-3-one]	15%
O=c1nc(Nc2ccc(C(F)(F)F)cc2)sn1CCc1ccccc1 [Example 8r, 2-[phenylethyl]-5-[[4-(trifluoromethyl)phenyl]amino]-1,2,4-thiadiazol-3-one]	58%
N#Cc1ccc(Nc2nc(=O)n(Cc3ccc(F)c(F)c3)s2)cc1 [Example 8w, 4-[[2-[(3,4-difluorophenyl)methyl]-3-oxo-1,2,4-thiadiazol-5-yl]amino]benzonitrile]	28%

Same assay, conditions: Homo sapiens, serum-free, 10 μM, relative to vehicle control (1 unit), 18 h + 6 h BrdU, read-out: Units of BrdU incorporation

SMILES	activity at 10 µM
CN(CCn1c(=O)[nH]s/c1=N\c1ccc(Cl)c(Cl)c1)c1ccc(Cl)cc1 [Example 2g, 4-[2-[(4-chlorophenyl)-methyl-amino]ethyl]-5-(3,4-dichlorophenyl)imino-1,2,4-thiadiazolidin-3-one]	14%
O=C(Nc1nc(=O)n(Cc2cccc(C(F)(F)F)c2)s1)c1ccccc1 [Example 3, N-[3-oxo-2-[[3-(trifluoromethyl)phenyl]methyl]-1,2,4-thiadiazol-5-yl]benzamide]	70%
O=C(Nc1nc(=O)n(Cc2cccc(C(F)(F)F)c2)s1)c1ccc(F)cc1 [Example 4a, 4-fluoro-N-[3-oxo-2-[[3-(trifluoromethyl)phenyl]methyl]-1,2,4-thiadiazol-5-yl]benzamide]	30.9%
O=C(Cc1ccc(F)cc1)Nc1nc(=O)n(Cc2cccc(C(F)(F)F)c2)s1 [Example 4b, 2-(4-fluorophenyl)-N-[3-oxo-2-[[3-(trifluoromethyl)phenyl]methyl]-1,2,4-thiadiazol-5-yl]acetamide]	72%
O=C(Nc1nc(=O)n(Cc2ccc(F)c(F)c2)s1)c1ccc(Cl)cc1 [Example 4c, 4-chloro-N-[2-[(3,4-difluorophenyl)methyl]-3-oxo-1,2,4-thiadiazol-5-yl]benzamide]	39.3%
O=C(Nc1nc(=O)n(Cc2ccc(F)cc2)s1)c1ccc(Cl)cc1 [Example 4d, 4-chloro-N-[2-[(4-fluorophenyl)methyl]-3-oxo-1,2,4-thiadiazol-5-yl]benzamide]	61.2%
O=C(Nc1nc(=O)n(Cc2ccc(Cl)cc2)s1)c1ccc(Cl)cc1 [Example 4e, 4-chloro-N-[2-[(4-chlorophenyl)methyl]-3-oxo-1,2,4-thiadiazol-5-yl]benzamide]	35.5%
O=C(Nc1nc(=O)n(Cc2ccc(F)cc2)s1)c1c(Cl)cccc1Cl [Example 4l, 2,6-dichloro-N-[2-[(4-fluorophenyl)methyl]-3-oxo-1,2,4-thiadiazol-5-yl]benzamide]	20%
O=C(Nc1nc(=O)n(Cc2ccc(F)cc2)s1)c1ccc(Cl)cc1Cl [Example 4m, 2,4-dichloro-N-[2-[(4-fluorophenyl)methyl]-3-oxo-1,2,4-thiadiazol-5-yl]benzamide]	23%
O=C(Nc1nc(=O)n(Cc2ccc(F)cc2)s1)c1cc(C(F)(F)F)cc(C(F)(F)F)c1 [Example 4o, N-[2-[(4-fluorophenyl)methyl]-3-oxo-1,2,4-thiadiazol-5-yl]-3,5-bis(trifluoromethyl)-benzamide]	28%
O=C(Nc1nc(=O)n(Cc2ccc(F)cc2)s1)c1ccc(F)c(F)c1 [Example 4p, 3,4-difluoro-N-[2-[(4-fluorophenyl)methyl]-3-oxo-1,2,4-thiadiazol-5-yl]benzamide]	26%
O=c1[nH]s/c(=N\c2ccc(Cl)c(Cl)c2)n1CCOc1ccccc1 [Example 5a, 5-(3,4-dichlorophenyl)imino-4-(2-phenoxyethyl)-1,2,4-thiadiazolidin-3-one]	37%
O=c1nc(Nc2ccc(Cl)c(Cl)c2)sn1CCOc1ccccc1 [Example 5b, 5-(3,4-Dichloro-phenylamino)-2-(2-phenoxy-ethyl)-[1,2,4]thiadiazol-3-one]	14%
